Substitutions are numbered along the chain they refer to. Converted amounts (≈) assume the structure as drawn. The source made the active and inactive calls. The rule behind the calls is not given here.
Columns and labels:
Escherichia coli [1] = assay: Antimicrobial activity against Escherichia coli ATCC 35218; type: functional
[2] = test system: Mycobacterium tuberculosis; assay: Antibacterial activity against Mycobacterium tuberculosis H37Rv ATCC 27294 incubated for 7 days by microplate alamar blue assay; type: functional; conditions: 168 h, time 7 day
[3] = target: T1, Enoyl-[acyl-carrier-protein] reductase [NADH] FabI (Escherichia coli K-12, UniProt P0AEK4); assay: Inhibition of Escherichia coli FabI using trans-2-[…]-N-acetylcysteamine as substrate by spectrophotometry
T1 sequence (P0AEK4 whole entry): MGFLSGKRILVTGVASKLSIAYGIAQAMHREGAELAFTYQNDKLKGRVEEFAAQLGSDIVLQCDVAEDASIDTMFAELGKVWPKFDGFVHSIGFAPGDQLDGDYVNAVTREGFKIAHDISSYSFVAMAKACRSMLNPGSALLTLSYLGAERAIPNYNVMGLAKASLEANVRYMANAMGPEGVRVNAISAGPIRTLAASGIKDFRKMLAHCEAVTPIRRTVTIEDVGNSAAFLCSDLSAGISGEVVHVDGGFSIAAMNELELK

Staphylococcus aureus = assay: Antimicrobial activity against Staphylococcus aureus assessed as complete inhibition of growth after 24 hrs by broth microdilution method; type: functional
[4] = Inhibition of Staphylococcus aureus FabI assessed as incorporation of [1-14C]acetate to L-[U-14C]leucine
Escherichia coli [5] = assay: Antimicrobial activity against Escherichia coli W3110 imp4213 assessed as absence of growth; type: functional
Escherichia coli [6] = assay: Antimicrobial activity against Escherichia coli W3110 imp4213 expressing pCA24N mutant assessed as absence of growth; type: functional
Escherichia coli [7] = assay: Antimicrobial activity against Escherichia coli W3110 imp4213 expressing fabI G93V mutant assessed as absence of growth; type: functional
Escherichia coli [8] = assay: Antimicrobial activity against Escherichia coli W3110 imp4213 expressing pCA24N-fabI mutant assessed as absence of growth; type: functional
Escherichia coli [9] = assay: Antimicrobial activity against Escherichia coli W3110 imp4213 expressing pCA24N-fab/ Y156V mutant assessed as absence of growth; type: functional
Escherichia coli [10] = assay: Antimicrobial activity against Escherichia coli W3110 imp4213 expressing pCA24N-fab F203L mutant assessed as absence of growth; type: functional
Escherichia coli [11] = assay: Antimicrobial activity against Escherichia coli W3110 imp4213 expressing pCA24N-fab F204V mutant assessed as absence of growth; type: functional
Escherichia coli [12] = assay: Antimicrobial activity against Escherichia coli W3110 imp4213 expressing fabI392 mutant assessed as absence of growth; type: functional
Escherichia coli [13] = assay: Antibacterial activity against Escherichia coli BW25113 assessed as effect on growth rate per hour at 0.128 uM incubated for 24 hrs by microplate reader; type: functional
Escherichia coli [14] = assay: Ratio of MIC for antimicrobial activity against Escherichia coli W3110 imp4213 expressing fabI392 pCA24N fabI F204V mutant assessed as absence of growth to MIC for antimicrobial activity against Escherichia coli W3110 imp4213 expressing fabI392 mutant assessed as absence of growth; type: functional
Escherichia coli [15] = assay: Ratio of MIC for antimicrobial activity against Escherichia coli W3110 imp4213 expressing fabI392 pCA24N fabI F203L mutant assessed as absence of growth to MIC for antimicrobial activity against Escherichia coli W3110 imp4213 expressing fabI392 mutant assessed as absence of growth; type: functional
Escherichia coli [16] = assay: Antimicrobial activity against triclosan resistance-induced Escherichia coli W3110 assessed as absence of growth; type: functional
Escherichia coli [17] = assay: Antimicrobial activity against wild type Escherichia coli W3110 assessed as absence of growth; type: functional
Plasmodium falciparum = assay: Binding affinity to Plasmodium falciparum FabI Y156V mutant assessed as fluorescence quenching by fluorescence spectral analysis
[18] = Drug uptake in Escherichia coli W3110 at 8 ug/ml incubated for 2 hrs (Rvb (wash control) = 1.88 pM); type: ADME; conditions: dose 8 µg/ml
[19] = Drug uptake in Escherichia coli W3110 imp4213 mutant at 8 ug/ml incubated for 2 hrs (Rvb (wash control) = 1.48 +/- 1.31 pM); type: ADME; conditions: dose 8 µg/ml
Escherichia coli [20] = assay: Antimicrobial activity against Escherichia coli W3110 imp4213 expressing fabI392 pCA24N mutant assessed as absence of growth; type: functional
Escherichia coli [21] = assay: Antimicrobial activity against Escherichia coli W3110 imp4213 expressing fabI392 pCA24N fabI mutant assessed as absence of growth; type: functional
Escherichia coli [22] = assay: Antimicrobial activity against Escherichia coli W3110 imp4213 expressing fabI392 pCA24N fabI Y156V mutant assessed as absence of growth; type: functional
Escherichia coli [23] = assay: Antimicrobial activity against Escherichia coli W3110 imp4213 expressing fabI392 pCA24N fabI F203L mutant assessed as absence of growth; type: functional
Escherichia coli [24] = assay: Antimicrobial activity against Escherichia coli W3110 imp4213 expressing fabI392 pCA24N fabI F204V mutant assessed as absence of growth; type: functional
[25] = target: T2, Enoyl-[acyl-carrier-protein] reductase [NADH] FabI (Escherichia coli K-12) (UniProt P0AEK4); assay: Binding affinity to wild type Escherichia coli FabI assessed as change in entropy
T2 sequence (whole entry): T1 sequence (P0AEK4 whole entry)

[26] = test system: T3, Enoyl-[acyl-carrier-protein] reductase [NADH] FabI (Escherichia coli K-12), P0AEK4 [G93V]; assay: Binding affinity to Escherichia coli FabI G93V mutant assessed as change in entropy
T3 sequence (whole entry): T1 sequence (P0AEK4 whole entry) with G93V

[27] = test system: T4, Enoyl-[acyl-carrier-protein] reductase [NADH] FabI (Escherichia coli K-12), P0AEK4 [Y156V]; assay: Binding affinity to Escherichia coli FabI Y156V mutant assessed as change in entropy
T4 sequence (whole entry): T1 sequence (P0AEK4 whole entry) with Y156V

[28] = target: T2, Enoyl-[acyl-carrier-protein] reductase [NADH] FabI (Escherichia coli K-12); assay: Binding affinity to wild type Escherichia coli FabI assessed as binding free energy
[29] = test system: T3, Enoyl-[acyl-carrier-protein] reductase [NADH] FabI (Escherichia coli K-12), P0AEK4 [G93V]; assay: Binding affinity to Escherichia coli FabI G93V mutant assessed as binding free energy
[30] = test system: T4, Enoyl-[acyl-carrier-protein] reductase [NADH] FabI (Escherichia coli K-12), P0AEK4 [Y156V]; assay: Binding affinity to Escherichia coli FabI Y156V mutant assessed as binding free energy
[31] = target: T5, Enoyl-acyl-carrier protein reductase (Plasmodium falciparum) (UniProt Q965D5); assay: Binding affinity to Plasmodium falciparum FabI assessed as fluorescence quenching by fluorescence spectral analysis
T5 sequence (whole entry): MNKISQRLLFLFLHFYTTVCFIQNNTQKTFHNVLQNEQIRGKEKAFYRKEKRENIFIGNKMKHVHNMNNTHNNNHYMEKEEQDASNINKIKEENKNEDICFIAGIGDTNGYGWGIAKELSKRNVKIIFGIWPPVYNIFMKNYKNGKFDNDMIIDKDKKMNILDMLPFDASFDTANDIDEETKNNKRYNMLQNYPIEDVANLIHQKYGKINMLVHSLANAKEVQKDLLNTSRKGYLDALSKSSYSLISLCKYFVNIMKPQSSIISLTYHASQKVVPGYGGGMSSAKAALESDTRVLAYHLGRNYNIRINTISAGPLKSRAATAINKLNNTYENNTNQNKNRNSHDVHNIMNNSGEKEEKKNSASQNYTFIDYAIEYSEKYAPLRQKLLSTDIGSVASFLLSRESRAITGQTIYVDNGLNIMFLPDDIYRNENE

Escherichia coli [32] = assay: Antibacterial activity against Escherichia coli BW25113 assessed as effect on growth rate per hour at 8 uM incubated for 24 hrs by microplate reader; type: functional
[33] = target: T1, Enoyl-[acyl-carrier-protein] reductase [NADH] FabI; assay: Inhibition of Wild type Escherichia coli FabI
[34] = target: Enoyl-[acyl-carrier-protein] reductase [NADH] FabI (Escherichia coli K-12, UniProt P0AEK4, F203L); assay: Inhibition of Escherichia coli FabI F203L mutant
Sequence of Enoyl-[acyl-carrier-protein] reductase [NADH] FabI (Escherichia coli K-12, UniProt P0AEK4, F203L) (P0AEK4 2-262 F203L limits assumed): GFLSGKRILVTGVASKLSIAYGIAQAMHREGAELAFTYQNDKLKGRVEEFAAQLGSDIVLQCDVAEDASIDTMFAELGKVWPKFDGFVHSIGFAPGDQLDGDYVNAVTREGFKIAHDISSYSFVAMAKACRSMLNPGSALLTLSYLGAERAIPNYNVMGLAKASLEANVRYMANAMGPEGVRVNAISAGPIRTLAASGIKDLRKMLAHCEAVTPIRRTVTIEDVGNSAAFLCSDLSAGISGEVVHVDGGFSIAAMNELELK

[35] = target: Enoyl-[acyl-carrier-protein] reductase [NADH] FabI (Escherichia coli K-12, UniProt P0AEK4, F203V); assay: Inhibition of Escherichia coli FabI F203V mutant
Sequence of Enoyl-[acyl-carrier-protein] reductase [NADH] FabI (Escherichia coli K-12, UniProt P0AEK4, F203V) (P0AEK4 2-262 F203V limits assumed): as the sequence (P0AEK4 2-262 F203L limits assumed) above, with L202V counted along it

[36] = target: Enoyl-[acyl-carrier-protein] reductase [NADH] FabI (Escherichia coli K-12, UniProt P0AEK4, Y156V); assay: Inhibition of Escherichia coli FabI Y156V mutant
Sequence of Enoyl-[acyl-carrier-protein] reductase [NADH] FabI (Escherichia coli K-12, UniProt P0AEK4, Y156V) (P0AEK4 2-262 Y156V limits assumed): as the sequence (P0AEK4 2-262 F203L limits assumed) above, with Y155V, L202F counted along it

[37] = target: Enoyl-[acyl-carrier-protein] reductase [NADH] FabI (Escherichia coli K-12, UniProt P0AEK4, G93V); assay: Inhibition of Escherichia coli FabI G93V mutant

Work on `C=C1C(=O)OCC1C/C=C(\C)CC(=O)C=C(C)C` (configuration not stated) [ANTHECOTULIDE] yielded an MIC (Escherichia coli [1]) of 25 µg/mL (≈ 101 µM) and an MIC [2] of 20.2 µg/mL (≈ 81.3 µM).
In the case of `O=C(O[C@@H]1Cc2c(O)cc(O)cc2O[C@@H]1c1cc(O)c(O)c(O)c1)c1cc(O)c(O)c(O)c1` [EPIGALOCATECHIN GALLATE], the IC50 [3] is reported as 5 µM.
`CC(=O)c1cc2c(=O)c3c(C(=O)O)c(O)c(O)cc3oc2c(C(C)=O)c1-c1coc2cc(O)c(O)c(C(=O)O)c2c1=O` [VINAXANTHONE] showed an MIC (Staphylococcus aureus) of 32 µg/mL (≈ 55.5 µM) and an IC50 [4] of 0.9 µM.
In the case of `Oc1cc(Cl)ccc1Oc1ccc(Cl)cc1Cl` [TRICLOSAN], the MIC (Escherichia coli [5]) is reported as 0.02 µg/mL (≈ 0.0691 µM), the MIC (Escherichia coli [6]) is reported as 0.02 µg/mL (≈ 0.0691 µM) and the MIC (Escherichia coli [7]) is reported as greater than 1.28 µg/mL. The MIC (Escherichia coli [8]) was 0.512 µg/mL (≈ 1.77 µM), the MIC (Escherichia coli [9]) was 2.05 µg/mL (≈ 7.07 µM) and the MIC (Escherichia coli [10]) was greater than 2.05 µg/mL. It also gave an MIC (Escherichia coli [11]) of 2.05 µg/mL (≈ 7.07 µM), an MIC (Escherichia coli [12]) of 0.002 µg/mL (≈ 0.00691 µM) and an Activity (Escherichia coli [13]) of 0.4.
Work on `CC(C)=CCC[C@@H](C)c1ccc(C)c(O)c1` [XANTHORRIZOL] yielded a Ratio (Escherichia coli [14]) of 2, a Ratio (Escherichia coli [15]) of 2 and an MIC (Escherichia coli [16]) of 0.125 µg/mL (≈ 0.573 µM). The MIC (Escherichia coli [17]) was 0.05 µg/mL (≈ 0.229 µM), the Activity (Plasmodium falciparum) was “inactive” and the Drug uptake [18] was 0.23 pM. It also gave a Drug uptake [19] of 76.65 pM, an MIC (Escherichia coli [5]) of 16 µg/mL (≈ 73.3 µM) and an MIC (Escherichia coli [6]) of 16 µg/mL (≈ 73.3 µM). The MIC (Escherichia coli [7]) was 16 µg/mL (≈ 73.3 µM), the MIC (Escherichia coli [8]) was 64 µg/mL (≈ 293 µM) and the MIC (Escherichia coli [9]) was 128 µg/mL (≈ 586 µM). For the same compound, the MIC (Escherichia coli [10]) was 256 µg/mL (≈ 1170 µM), the MIC (Escherichia coli [11]) was 256 µg/mL (≈ 1170 µM) and the MIC (Escherichia coli [12]) was 2 µg/mL (≈ 9.16 µM). The MIC (Escherichia coli [20]) was 2 µg/mL (≈ 9.16 µM), the MIC (Escherichia coli [21]) was 8 µg/mL (≈ 36.6 µM) and the MIC (Escherichia coli [22]) was 16 µg/mL (≈ 73.3 µM). For the same compound, the MIC (Escherichia coli [23]) was 16 µg/mL (≈ 73.3 µM), the MIC (Escherichia coli [24]) was 16 µg/mL (≈ 73.3 µM) and the -TdeltaS [25] was -32.2 kcal/mol. It also gave a -TdeltaS [26] of -38.7 kcal/mol, a -TdeltaS [27] of -33.2 kcal/mol and a deltaG [28] of -15 kcal/mol. For the same compound, the deltaG [29] was -15.1 kcal/mol, the deltaG [30] was -10.6 kcal/mol and the Activity [31] was “inactive”. The Activity (Escherichia coli [32]) was 0.354, the IC50 [33] was 17.1 µM and the IC50 [34] was 75.7 µM. The IC50 [35] was 57.3 µM, the IC50 [36] was 37.7 µM and the IC50 [37] was 19.7 µM.

From ChEMBL document CHEMBL4673265, “The food-grade antimicrobial xanthorrhizol targets the enoyl-ACP reductase (FabI) in Escherichia coli” (Bioorg Med Chem Lett, 2020)
